Reference: publication PMC6425991, “Peptide Super-Agonist Enhances T-Cell Responses to Melanoma” (Frontiers in Immunology, 2019)
“And” between values parts separate entries of the source, which are not always exact repeats. Identical values can stand only once.

Tests used:
HLA A2 = molecular target: T1, HLA A2 (Homo sapiens, UniProt P04439, D140Y/D185E/D98H/E176V/E277Q/G131W/G231S/I119V/I121R/I166T/I218V/L300P/L318F/N151K/N90K/P208A/P217A/Q86G/Q94H/R138H/R169H/T345S); format: binding
T1 construct: T2 cells (TAP deficient HLA A2^+) were incubated overnight in serum-free media; endogenous in cells; host or cells: T2 cells

MM909.24 TIL = assay: Intracellular cytokine staining (IFNγ) of TIL infusion product; format: cell-based, human; details: T2 cells as antigen presenting cells, 5 h, peptide 10^−5-10^−12 M
Experimental: Cells were then washed and stained with violet Live/Dead fixable dead cell stain, VIVID (Life Technologies, Paisley, UK) and for surface markers with anti-CD3 peridinin chlorophyll protein (PerCP) (clone BW264/56, Miltenyi Biotech, Bergisch Gladbach, Germany) and anti-CD8 allophycocyanin (APC)-Vio770 (clone BW135/80, Miltenyi Biotech) antibodies. Cells were prepared for ICS by incubating with Cytofix/Cytoperm™ (BD Biosciences), according to manufacturer's instructions, before staining for 20 min on ice with anti-IFNγ APC antibody (clone 45-15, Miltenyi Biotech). Cells were resuspended in FACS buffer (PBS supplemented with 2% FBS) before acquisition on BD FACS Canto II (BD Biosciences). Data was analysed using FlowJo Software (TreeStar, Ashland, OR, USA).

CD8 T-cell clone ST8.24 = assay: Peptide activation assay, MIP-1β ELISA; format: cell-based, human; details: overnight, T2 cells, peptide titration
Experimental: T-cell clones were cultured in R5 for 24 h prior to assay to reduce spontaneous activation. Assays were performed overnight in R5 in 96 U well plates with 3 × 10^5 T-cells and 6 × 10^5 T2 cells with and without desired peptides. The following day, supernatants were harvested, diluted with 70 μL R0 (R10 but without serum) and a half-area-well MIP-1β Enzyme-linked Immunosorbent Assay (ELISA) was carried out as per the manufacturer's instructions (R&D Systems, Minneapolis, MN). A decamer combinatorial peptide library (Pepscan Presto BV, Lelystad, The Netherlands) was stored and used as previously described ([19]). Individual peptides were synthesised to ≥95% purity (GL Biochem, Shanghai, China, or Peptide Protein Research Ltd, Hampshire, UK) stored at −80°C. […] Polyclonal T-cell populations were cultured overnight in R5 in order to reduce spontaneous activation. The following day an IFNγ Enzyme-Linked ImmunoSpot (ELISpot) assay was performed, using Multiscreen plates® (Millipore, Massachusetts, MA) as per the manufacturers' instructions (Mabtech, Nacka Strand, Sweden). 5 × 10^4 T-cells were screened against 10 candidate super-agonist peptides (described previously) at a concentration range of 10^−4 to 10^−8 mM. ELISpot data was collected using an ImmunoSpot® plate reader (CTL, Shaker Heights, Ohio, OH).

[1] = system: CD8 T-cells of healthy donors; details: cited from earlier work
Text: Analysis of T-cells that responded to autologous tumour within the TIL infusion product used to cure an HLA A2^+ stage IV melanoma patient (code MM909.24), and also in the blood 6 months post cure, identified several persistent TCR clonotypes ([16], [17]). […] […]. Alteration of TCR contact residues has the advantage that the resultant APL are highly likely to be viewed as “nonself” and may therefore have increased potential for breaking immune tolerance. […]. PS-CPL have been explored as a way of selecting such “mimitopes” ([19], [33], [50]). This approach ...

Sequence: DRASFIKNL
- MFI of HLA A2 expression (HLA A2): 197 and 191 and 182 and 211 and 183 and 188

Sequence: FATGIGIITV [super-agonist peptide of clone MEL5 from the authors' previous work]
- IFNγ production by TIL infusion product (MM909.24 TIL): failed to induce IFNγ production
- activation of clone ST8.24 (MIP-1β ELISA) (CD8 T-cell clone ST8.24): failed to activate
- healthy donors in which the peptide induced greater CD8 T-cell responses [1]: 6 of 10

Sequence: HPVGEADYFEY
- MFI of HLA A2 expression (HLA A2): 183 and 202 and 199 and 159 and 231
